Test results: patent publication US6756399B2, “Use of lipoxygenase inhibitors and PPAR ligands as anti-cancer therapeutic and intervention agents” (The United States of America as represented by the …, priority 2001, dated 2004)
“Also recorded” adds a separate entry of the source.

Columns and labels:
H345 cell line = experiment: Apo-1 Caspase 3/7 apoptosis assay, H345; format: cell-based
Procedure: (§1) Lung cancer cell lines used for PPAR analysis included A549, H510, H345, and N417. The FLAP inhibitor: MK886 and COX inhibitor: indomethacin, and combinations thereof, were used as AA inhibitors. PPARs for the analysis included PGJ2 (γ ligand); ciglitazone (γ agonist); LY171882 (γ receptor activator); and WY 14643 (α activator). In order to analyze PPARs in lung cancer cells, growth inhibition (MTT, BrdU); apoptosis (Caspase 3/7 and M30 IHC); and mRNA Northern analyses were performed.
(§2) Apoptosis was determined at particular time points using the Apo-1Caspase 3/7 assay.

[1] = system: A549, H510, H345, and N417 lung cancer cell lines; experiment: Growth inhibition (MTT, BrdU) in lung cancer cell lines; format: cell-based; settings: all tested cell lines (A549, H510, H345, N417)
Procedure: as §1

A549 cell line [2] = experiment: M30 immunohistochemistry for apoptosis, A549; format: cell-based
Procedure: as §1
(§3) M30 Immunohistochemistry was performed to test for apoptosis in the various lung cancer cell lines. […] Apoptosis was also observed in the H345 and N417 cell lines, but PPAR induction was low and no significant increase in PPAR protein expression was observed when tested in combination with PGJ2. […] In summary, combinations of FLAP inhibitors, cyclooxygenase inhibitors, and PPARγ ligands generally had additive effects in reducing lung cancer cell line growth; this generally correlated with measures of enhanced apoptosis.

[3] = system: T47D breast cancer cell line; experiment: Proliferation assay, breast cancer cell line T47D; format: cell-based; settings: compared to vehicle control
Procedure: (§4) Breast cancer cell line ZR-75 was grown in the presence of 5 μM inhibitors for 24 and 48 hrs, total RNA was isolated and RT-PCR performed for PPARα and PPARγ using specific primers. Results are presented as percent of control after normalizing with the actin values. The experiment was repeated three times. The error bars indicate standard deviation. […] All values were determined by assessment of % growth inhibition calculated from the optical density value, with a minimum of 6 replicates from at least three different experiments per cell line. The ligands included WY-14643 (open circles); LY 171883 (closed circles); fenofibrate (triangles); clofibrate (diamonds).
(A) Northern blot analysis for PPARγ (1.8 Kb), of breast cancer cell line T47D treated with 5 μM MK 886 for 6, 12, 24 hrs and untreated control. RNA was isolated as described in Methods, and […] of total RNA was loaded per lane. Ethidium bromide staining of 28S rRNA was used to check for equal loading and RNA integrity (lower panel). (B) RNA isolated from T47D cells treated with 5 μM MK 886 for different time periods were subjected to RT-PCR using specific primers for PPARγ. The PCR products were normalized to actin gene and 18S. PCR products were quantified by densitometry and the data points presented are expressed as percent of control, and represent mean and SEM of three experiments. […]

[4] = system: ZR-75 breast cancer cell line; experiment: Proliferation assay, breast cancer cell line ZR-75; format: cell-based; settings: ZR-75, compared to vehicle control
Procedure: as §4
Cell lines used in the study were obtained from the American Type Culture Collection (Rockville, Md.). They included MCF-7, ZR-75, T47 D; SKBR-3, and MB-231. The cells were maintained in RPMI-1640, or MEM Zinc option medium, supplemented with 5% fetal bovine serum (FBS), penicillin (50 units/ml) and streptomycin (50 μg/ml) (Life Technologies, Gaithersburg, Md.), in a humidified atmosphere of 95% air and 5% CO2 at 37° C.

H510 cell line [5] = experiment: Apo-1 Caspase 3/7 apoptosis assay, H510; format: cell-based
Procedure: as §1, §2

PPARγ [6] = experiment: Northern analysis, PPARγ mRNA in A549; format: cell-based
Procedure: as §1
(§5) Northern analysis was performed with untreated cells and cells treated with AA inhibitors: MK886, indomethacin, or the combination of MK886 and indomethacin. […] There was also no expression after 24 hours of exposure to AA inhibitors, confirming previous Northern analyses. […] In the H510 cell line, no expression for PPARγ was observed.

PPARα [7] = experiment: Northern analysis, PPARα mRNA in A549; format: cell-based
Procedure: as §1, §5

PPARγ [8] = experiment: Semi-quantitative RT-PCR for PPARγ in T47D cells; format: cell-based; settings: 5 μM MK886, different time periods
Procedure: (§6) (A) Northern blot analysis for PPARγ (1.8 Kb), of breast cancer cell line T47D treated with 5 μM MK 886 for 6, 12, 24 hrs and untreated control. RNA was isolated as described in Methods, and […] of total RNA was loaded per lane. Ethidium bromide staining of 28S rRNA was used to check for equal loading and RNA integrity (lower panel). (B) RNA isolated from T47D cells treated with 5 μM MK 886 for different time periods were subjected to RT-PCR using specific primers for PPARγ. The PCR products were normalized to actin gene and 18S. PCR products were quantified by densitometry and the data points presented are expressed as percent of control, and represent mean and SEM of three experiments. (C) Breast cancer cell line T47D, was incubated with various concentrations of MK886 (circles) and then analyzed using a proliferation assay. After 12 hr incubation, the inhibitors were removed and replaced by media alone (open circles), or media with 4 μM LY 171883 (closed circles). LY 171883 in the presence of media without the FLAP inhibitor is shown (stars). After an additional 24 hr incubation time, the experiments were terminated. All values were determined by assessment of % growth inhibition calculated from the optical density value, with a minimum of 6 replicates from at least three different experiments. The error bars indicate standard deviation. […]

A549 cell line [9] = experiment: Apo-1 Caspase 3/7 apoptosis assay, A549; format: cell-based
Procedure: as §1, §2

H510 cell line [10] = experiment: M30 immunohistochemistry for apoptosis, H510; format: cell-based
Procedure: as §1, §3

PPARγ [11] = experiment: RT-PCR for PPARγ mRNA in breast cancer cell line ZR-75; format: cell-based; settings: ZR-75, 5 μM, 24 and 48 hours
Procedure: as §4
(§7) Cells were grown for 24 hrs or 48 hrs in the presence or absence of inhibitors at 5 μM concentration. RNA was isolated using the Trizol method (Life Technologies, Gaithersburg, Md.), and RT-PCR was performed using specific primers for PPAR and actin control genes.
(§8) Forward (F) and reverse (R) primers used to detect PPAR cDNAs were: […]
(§9) The ethidium bromide stained image was digitized and the optical density calculated using the NIH Image program. Values were normalized with the actin value obtained with commercially available primers (Clontech Inc., Palo Alto, Calif. ). These experiments were repeated three times.

PPARγ [12] = experiment: Northern blot analysis for PPARγ in T47D cells; format: cell-based, human; settings: 5 μM MK886, 0, 6, 12, 24 hours
Procedure: as §6, with “(stars).” for “(stars). After an additional 24 hr incubation time, the experiments were terminated. All values were determined by assessment of % growth inhibition calculated from the optical density value, with a minimum of 6 replicates from at least three different experiments. The error bars indicate standard deviation.”
After treatment for the indicated time points (5 μM MK886 at 0, 6, 12, 24 hours), cells were washed with PBS and total RNA was extracted using the RNeasy Mini Kit (QUIAGEN Inc., Valencia, Calif.). […] Equal loading and integrity of RNA was monitored by ethidium bromide staining (FIG. 2A). […]

PPARδ = experiment: Northern analysis, PPARδ mRNA in A549; format: cell-based
Procedure: as §1, §5

N417 cell line = experiment: Apo-1 Caspase 3/7 apoptosis assay, N417; format: cell-based
Procedure: as §1, §2

15-HETE = 15-HETE production after exposure to FLAP inhibitor; format: cell-based; settings: in response to exposure to MK 886
PPARα [13] = experiment: RT-PCR for PPARα mRNA in breast cancer cell line ZR-75; format: cell-based; settings: ZR-75, 5 μM, 24 and 48 hours
Procedure: as §4, §7, §8, §9

PPARγ [14] = experiment: Northern analysis, PPARγ mRNA in H345; format: cell-based
Procedure: as §1, §5

For `CC1(COc2ccc(CC3SC(=O)NC3=O)cc2)CCCCC1` (racemic) [ciglitazone, (±)-5-[4-(1-Methylcyclohexylmethoxy)-benzyl] thiazolidine-2,4-dione], the “apoptosis (Caspase 3/7)” value (H345 cell line) was “induced apoptosis” and the “growth of lung cancer cell lines” value [1] was “reduced growth in a dose dependent manner”.
In the case of `CCCc1c(OCCCCc2nnn[nH]2)ccc(C(C)=O)c1O` [LY 171883], the “apoptosis (M30 immunohistochemistry)” value (A549 cell line [2]) is reported as “Some apoptosis also occurred”, the “apoptosis (Caspase 3/7)” value (H345 cell line) is reported as “neither LY171882 or WY 14643 (α activator) induced apoptosis” and the “breast tumor cell growth” value [3] is reported as “dose dependent growth reduction”. For the same compound, the “breast tumor cell growth” value [4] was “dose dependent growth reduction”.
In the case of `CC(C)c1ccc2c(c1)c(SC(C)(C)C)c(CC(C)(C)C(=O)O)n2Cc1ccc(Cl)cc1` [MK886, 3-[1-(4-chlorobenzyl)-3-t-butyl-thio-5-isopropylindol-2-yl]-2,2-dimethylpropanoic acid], the “apoptosis (Caspase 3/7)” value (H510 cell line [5]) is reported as “two fold induction of apoptosis”, the “PPARγ mRNA (Northern)” value (PPARγ [6]) is reported as “Up-regulation of PPARγ” and the “apoptosis (Caspase 3/7)” value (H345 cell line) is reported as “induced apoptosis”. The “PPARα mRNA (Northern)” value (PPARα [7]) was “no mRNA for PPARα”, the “PPARγ induction (semi-quantitative RT-PCR)” value (PPARγ [8]) was “induction of PPARγ is more protracted” and the “apoptosis (Caspase 3/7)” value (A549 cell line [9]) was “increased apoptosis”. The “apoptosis (M30 immunohistochemistry)” value (H510 cell line [10]) was “apoptosis in the H510 cell line was observed”, the PPARγ expression (PPARγ [11]) was “up-regulation” and the “PPARγ expression (Northern blot)” value (PPARγ [12]) was “induction of PPARγ is evident within six hours; also recorded: PPARγ expression levels increase”. The “PPARδ mRNA (Northern)” value (PPARδ) was “some mRNA observed for PPARδ”, the “apoptosis (Caspase 3/7)” value (N417 cell line) was “two fold increase in apoptosis” and the 15-HETE production (15-HETE) was “large increase”. The “growth of lung cancer cell lines” value [1] was “inhibited all tested cell lines in a dose dependent manner ranging from 0.25 to 2.0 μM”, the PPARα expression (PPARα [13]) was “up-regulation” and the “PPARγ expression (Northern)” value (PPARγ [14]) was “PPARγ expression was induced”.
`CC(Cc1ccc(O)c(O)c1)C(C)Cc1ccc(O)c(O)c1` (stereo not drawn) [NDGA, Nordihydroguaiaretic acid] was tested, and the PPARγ expression (PPARγ [11]) was “up-regulation” and the PPARα expression (PPARα [13]) was “up-regulation”.
For `CCCCC/C=C/C=C1/C(=O)C=C[C@@H]1C/C=C\CCCC(=O)O` [PGJ2, 15-Deoxy-Δ^12,14-Prostaglandin J2], the “PPARγ mRNA (Northern)” value (PPARγ [6]) was “mRNA decreases to those levels observed with control”, the “apoptosis (M30 immunohistochemistry)” value (H510 cell line [10]) was “apoptosis in the H510 cell line was observed” and the “growth of lung cancer cell lines” value [1] was “reduced growth in a dose dependent manner”. The “PPARγ expression (Northern)” value (PPARγ [14]) was “down regulated mRNA”.
`CCOC(=O)C(C)(C)Oc1ccc(Cl)cc1` [clofibrate, 2-(4-chlorophenoxy)-2-methylpropanoic acid ethyl ester] was tested, and the “breast tumor cell growth” value [3] was “dose dependent growth reduction” and the “breast tumor cell growth” value [4] was “dose dependent growth reduction”.
For `COc1ccc2c(c1)c(CC(=O)O)c(C)n2C(=O)c1ccc(Cl)cc1` [indomethacin], the “apoptosis (Caspase 3/7)” value (H510 cell line [5]) was “two fold induction of apoptosis”, the “PPARγ mRNA (Northern)” value (PPARγ [6]) was “Up-regulation of PPARγ” and the “apoptosis (M30 immunohistochemistry)” value (H510 cell line [10]) was “apoptosis in the H510 cell line was observed”. For the same compound, the “growth of lung cancer cell lines” value [1] was “no effect on growth, even at a concentration of greater than 10 μM”.
